Patent US20060148712A1, “Monocyte chemoattractant activity of galectin-3” (priority 2000, published 2006)

Assays:
[1] = system: eosinophils; experiment: Eosinophil attraction in vitro (not shown); type: cell-based
[2] = molecular target: T1, CCR-1 (Homo sapiens, UniProt P32246); experiment: Immunoprecipitation and immunoblotting with specific antibodies; type: binding
T1 construct: Chemokine receptors expressed on monocytes include CCR-1, CCR-2, CCR-5, and CXCR-4; endogenous in cells
T1 sequence (P32246 1-355): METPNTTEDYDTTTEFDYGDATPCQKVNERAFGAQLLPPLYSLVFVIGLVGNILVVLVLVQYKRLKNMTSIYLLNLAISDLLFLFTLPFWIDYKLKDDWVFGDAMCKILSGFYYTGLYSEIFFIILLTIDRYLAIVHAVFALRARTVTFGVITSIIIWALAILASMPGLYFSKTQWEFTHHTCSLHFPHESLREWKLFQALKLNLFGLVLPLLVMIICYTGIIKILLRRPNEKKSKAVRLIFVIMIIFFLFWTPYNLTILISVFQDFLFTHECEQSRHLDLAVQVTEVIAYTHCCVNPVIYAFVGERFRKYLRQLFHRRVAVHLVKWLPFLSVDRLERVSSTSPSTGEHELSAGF

[3] = molecular target: T2, CCR-5 (Homo sapiens, UniProt P51681); experiment: as above; type: binding
T2 construct: Chemokine receptors expressed on monocytes include CCR-1, CCR-2, CCR-5, and CXCR-4; endogenous in cells

[4] = system: human alveolar macrophages; experiment: Migration of human alveolar macrophages in vitro; type: cell-based; conditions: two separate experiments; bell-shaped dose-response curves
Source text: (§1) Human macrophages were obtained by culturing peripheral blood monocytes in vitro for 7 days as previously described (Fantuzzi, et al., Blood 94:875-83 (1999)). Human alveolar macrophages were obtained from bronchoalveolar lavage (BAL) fluid according to a previously described protocol (Sugimoto et al, Am. Rev. Respir. Dis. 139:1329-35 (1989)). The purity of the macrophages was over 90% and the viability was over 99%.
(§2) Monocyte migration was examined by using 96-well micro Boyden chambers with 5 μm-pore size filters (Neuro Probe, Inc., Gaithersburg, Md.) as described previously (Falk, et al., J. Immunol. Meth. 33:239-47 (1980)), Chertov, et al., J. Biol. Chem. 271:2935-40 (1996)). Briefly, after the indicated concentrations of galectin-3 in RPMI 1640 were applied to the lower chambers, purified monocyte suspensions (2.5-5.0×10^4/well) were applied to the upper chambers. After incubation of the chambers for 1 h in a humidified incubator at 5% CO2 and 37° C., the filters were washed once with PBS and processed with Wright stain. The number of monocytes on the bottom side of the filters was counted in 5 to 10 high-power fields. Monocyte migration was calculated from the average numbers of the counted cells and expressed as % of input cells in a well.

[5] = system: cultured human peripheral blood macrophages; experiment: Migration of cultured human peripheral blood macrophages in vitro; type: cell-based; conditions: 1 μM galectin-3; p<0.05, n=3
Source text: as §1, §2

T2 sequence (P51681 whole entry): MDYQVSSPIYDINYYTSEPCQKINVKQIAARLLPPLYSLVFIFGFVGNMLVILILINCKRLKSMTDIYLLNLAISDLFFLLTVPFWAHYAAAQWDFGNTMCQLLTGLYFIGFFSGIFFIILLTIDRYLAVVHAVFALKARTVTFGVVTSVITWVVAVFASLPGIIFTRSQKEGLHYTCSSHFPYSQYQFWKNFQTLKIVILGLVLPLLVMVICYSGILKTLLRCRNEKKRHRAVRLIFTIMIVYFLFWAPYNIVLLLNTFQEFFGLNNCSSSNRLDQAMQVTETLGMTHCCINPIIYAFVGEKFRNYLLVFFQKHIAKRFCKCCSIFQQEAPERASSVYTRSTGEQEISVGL

For “galectin-3: Recombinant human galectin-3, a 26 kDa beta-galactoside-binding protein (lectin)”, the “Attraction of eosinophils in vitro” value [1] was “does not attract eosinophils”, the “Interaction with chemokine receptor” value [2] was “Neither have interactions between galectin-3 and these four chemokine receptors been detected” and the “Interaction with chemokine receptor” value [3] was “Neither have interactions between galectin-3 and these four chemokine receptors been detected”. The “Migration of human alveolar macrophages” value [4] was “migrated towards galectin-3” and the “Enhancement of macrophage migration over that induced by the control medium” value [5] was 190%.
